Assay [1] deals with T1, SIK1 kinase (aa1-303, Thermo Fisher) (Homo sapiens, UniProt P57059).
T1 construct: SIK1 kinase (aa1-303, Thermo Fisher); purchased Thermo Fisher
Briefly: Biochemical activities determination for SIK1 protein (TR-FRET). Conditions: 110 uM ATP, 0.5 μM STK1 substrate. In outline:
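TR-FRET kinase assay with SIK1 (aa1-303), 110 uM ATP, 0.5 μM STK1 substrate and 0-10 μM compound in Tris pH 7.5 with MgCl2, EGTA, DTT, Triton X-100. Enzyme preincubated with compound 60 min, reaction 180 min at room temperature; 665/620 nm ratio after overnight detection; IC50 from four-parameter logistic fit.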

The target of assay [2] is T2, SIK2 kinase (full length, Thermo Fisher) (Homo sapiens, UniProt Q9H0K1).
T2 construct: SIK2 kinase (full length, Thermo Fisher); purchased Thermo Fisher
T2 sequence (Q9H0K1 whole entry): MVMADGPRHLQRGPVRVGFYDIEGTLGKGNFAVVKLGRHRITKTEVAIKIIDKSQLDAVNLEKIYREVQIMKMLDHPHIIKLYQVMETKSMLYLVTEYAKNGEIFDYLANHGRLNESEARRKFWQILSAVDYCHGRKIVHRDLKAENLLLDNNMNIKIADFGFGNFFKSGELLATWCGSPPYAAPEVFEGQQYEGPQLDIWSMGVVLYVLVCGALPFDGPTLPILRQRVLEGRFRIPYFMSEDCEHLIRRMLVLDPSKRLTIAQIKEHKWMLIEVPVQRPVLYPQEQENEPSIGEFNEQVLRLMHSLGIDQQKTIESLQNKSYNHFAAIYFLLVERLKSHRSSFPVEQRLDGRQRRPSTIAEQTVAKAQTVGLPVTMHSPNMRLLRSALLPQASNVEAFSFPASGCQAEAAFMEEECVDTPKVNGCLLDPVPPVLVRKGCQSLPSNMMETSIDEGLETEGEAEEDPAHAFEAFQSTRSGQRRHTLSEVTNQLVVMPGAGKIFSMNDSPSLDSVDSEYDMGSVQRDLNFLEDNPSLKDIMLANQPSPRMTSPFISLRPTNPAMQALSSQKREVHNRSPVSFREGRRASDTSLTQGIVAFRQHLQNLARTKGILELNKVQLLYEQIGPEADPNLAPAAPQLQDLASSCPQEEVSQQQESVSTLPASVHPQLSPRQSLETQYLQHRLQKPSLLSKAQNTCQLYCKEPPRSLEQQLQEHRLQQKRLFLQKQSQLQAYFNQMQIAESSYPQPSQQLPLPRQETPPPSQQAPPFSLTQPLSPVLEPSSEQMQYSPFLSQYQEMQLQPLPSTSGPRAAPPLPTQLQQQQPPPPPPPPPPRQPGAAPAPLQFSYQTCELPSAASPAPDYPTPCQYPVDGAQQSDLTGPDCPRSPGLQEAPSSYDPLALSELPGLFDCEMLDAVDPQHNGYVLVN
Briefly: Biochemical activities determination for SIK2 protein (TR-FRET). Conditions: 80 uM ATP, 0.5 μM substrate. In short, it runs like this: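 Full-length SIK2 preincubated 60 min with 0–10 μM compound, then reacted 180 min at room temperature with 80 uM ATP and 0.5 μM biotinylated substrate (pH 7.5 Tris/MgCl2 buffer). Phosphorylation detected by TR-FRET (665/620 nm ratio, cryptate antibody/streptavidin-XL665) after overnight incubation; IC50 from four-parameter logistic fit.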

Assay [3] addresses T3, SIK3 kinase (aa59-365, Thermo Fisher) (Homo sapiens, UniProt Q9Y2K2).
T3 construct: SIK3 kinase (aa59-365, Thermo Fisher); purchased Thermo Fisher
Kind of assay: Biochemical activities determination for SIK3 protein (TR-FRET). Conditions: 125 uM ATP, 0.5 μM STK1 substrate. In short, it runs like this: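 SIK3 (aa59-365) was preincubated with compound (0-10 μM) for 60 min at room temperature in Tris buffer pH 7.5. The reaction was then started with 125 uM ATP and 0.5 μM STK1 substrate and run 180 min at room temperature. Phospho-substrate was detected by HTRF (665/620 nm ratio), and IC50 came from a four-parameter logistic fit.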

The structures appear in SMILES notation.

T3 sequence (Q9Y2K2 59-365): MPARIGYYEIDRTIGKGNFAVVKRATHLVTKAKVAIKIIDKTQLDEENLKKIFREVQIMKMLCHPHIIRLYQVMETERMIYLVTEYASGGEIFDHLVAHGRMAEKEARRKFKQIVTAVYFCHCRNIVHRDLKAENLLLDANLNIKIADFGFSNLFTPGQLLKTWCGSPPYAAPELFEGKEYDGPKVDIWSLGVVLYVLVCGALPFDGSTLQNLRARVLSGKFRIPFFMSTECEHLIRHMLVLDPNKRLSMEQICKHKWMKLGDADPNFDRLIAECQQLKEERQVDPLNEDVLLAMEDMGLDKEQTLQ
T1 sequence (P57059 1-303): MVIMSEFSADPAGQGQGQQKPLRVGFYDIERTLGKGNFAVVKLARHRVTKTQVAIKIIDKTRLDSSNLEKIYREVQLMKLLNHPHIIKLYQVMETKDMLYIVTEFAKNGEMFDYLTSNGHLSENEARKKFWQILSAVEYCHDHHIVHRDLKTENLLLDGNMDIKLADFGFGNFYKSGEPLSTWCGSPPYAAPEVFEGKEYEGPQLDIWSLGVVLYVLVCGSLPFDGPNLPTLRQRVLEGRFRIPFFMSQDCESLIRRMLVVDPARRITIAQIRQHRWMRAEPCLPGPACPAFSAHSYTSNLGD

As to `COc1cc(-c2coc3cc(OCCN4CC[C@@H](F)C4)ccc23)cc(OC(F)F)c1C(=O)N[C@@H]1C[C@@H]1F` [Compound 71, 2-(difluoromethoxy)-N-((1R,2S)-2-fluorocyclopropyl)-4-(6-(2-((R)-3-fluoropyrrolidin-1-yl)ethoxy)benzofuran-3-yl)-6-methoxybenzamide], the figures for the IC50 in assay [1], in assay [2] and in assay [3] were 1380 nM, 48 nM and 39 nM, respectively.

In the case of `O=C(NC1CC1)c1c(OCCO)cc(-c2coc3cc(OCCN4CCCC4)ccc23)cc1OC(F)F` [Compound 103, N-cyclopropyl-2-(difluoromethoxy)-6-(2-hydroxyethoxy)-4-(6-(2-(pyrrolidin-1-yl)ethoxy)benzofuran-3-yl)benzamide], the values for the IC50 in assay [1], in assay [2] and in assay [3] were 9500 nM, 114 nM and 410 nM, respectively.

As for `COc1cc(-c2coc3cc(-c4cnn(C)c4)ccc23)cc2c1C(=O)N(CC(F)(F)F)CCO2` [Compound 28, 6-methoxy-8-(6-(1-methyl-1H-pyrazol-4-yl)benzofuran-3-yl)-4-(2,2,2-trifluoroethyl)-3,4-dihydrobenzo[f][1,4]oxazepin-5 (2H)-one], the IC50 in assay [1] amounted to 3940 nM; in assay [2], 140 nM; in assay [3], 281 nM.

As to `COc1cc(-c2coc3cc(OCCN4CCCC4)ccc23)cc(OC(F)F)c1C(=O)NCC#N` [Compound 66, N-(cyanomethyl)-2-(difluoromethoxy)-6-methoxy-4-(6-(2-(pyrrolidin-1-yl)ethoxy)benzofuran-3-yl)benzamide], the IC50 is 6690 nM in assay [1], 58 nM in assay [2] and 132 nM in assay [3].

For `COc1cc(-c2coc3cc(-c4cn(C)nc4C#N)ccc23)cc2c1C(=O)N(CC(F)(F)F)CC2` [Compound 18, 4-(3-(8-methoxy-1-oxo-2-(2,2,2-trifluoroethyl)-1,2,3,4-tetrahydroisoquinolin-6-yl)benzofuran-6-yl)-1-methyl-1H-pyrazole-3-carbonitrile], the IC50 is > 10000 nM in assay [1], 214 nM in assay [2] and 237 nM in assay [3].

Consider `COc1cc(-c2coc3cc(OCCN4CCC[C@@H]4C)ccc23)cc(OC(F)F)c1C(=O)N[C@@H]1C[C@@H]1F` [Compound 80, 2-(difluoromethoxy)-N-((1R,2S)-2-fluorocyclopropyl)-6-methoxy-4-(6-(2-((S)-2-methylpyrrolidin-1-yl)ethoxy)benzofuran-3-yl)benzamide], for which the figures for the IC50 in assay [1], in assay [2] and in assay [3] were 2850 nM, 20 nM and 54 nM, respectively.

Turning to `CCOc1cc(-c2coc3cc(OCCN4CCCC4)ccc23)cc(OC(F)F)c1C(=O)NC1CC1` [Compound 119, N-cyclopropyl-2-(difluoromethoxy)-6-ethoxy-4-(6-(2-(pyrrolidin-1-yl)ethoxy)benzofuran-3-yl)benzamide], the IC50 turned out to be 7180 nM in assay [1], 136 nM in assay [2] and 452 nM in assay [3].

Turning to `O=C(NC1CC1)c1c(OC(F)F)cc(-c2coc3cc(OCCN4CCCC4)ccc23)cc1OC(F)F` [Compound 123, N-cyclopropyl-2,6-bis(difluoromethoxy)-4-(6-(2-(pyrrolidin-1-yl)ethoxy)benzofuran-3-yl)benzamide], the IC50 in assay [1] was 8000 nM; in assay [2] it was 114 nM; in assay [3], 506 nM.

For `COc1cc(-c2coc3cc(OCCN4CCCC4)ccc23)cc(OC(F)F)c1C(=O)N[C@H]1C[C@H]1F` [Compound 98, 2-(difluoromethoxy)-N-((1S,2R)-2-fluorocyclopropyl)-6-methoxy-4-(6-(2-(pyrrolidin-1-yl)ethoxy)benzofuran-3-yl)benzamide], the IC50 is > 10000 nM in assay [1], 128 nM in assay [2] and 525 nM in assay [3].

With `COc1cc(-c2coc3cc(OCCN4CCCC4)ccc23)cc(OC(F)F)c1C(=O)NC1CCCCC1` [Compound 127, N-cyclohexyl-2-(difluoromethoxy)-6-methoxy-4-(6-(2-(pyrrolidin-1-yl)ethoxy)benzofuran-3-yl)benzamide], the IC50 in assay [1] is > 10000 nM; in assay [2], 619 nM; in assay [3] it was 2900 nM.

The values are drawn from patent US20260085053A1, “BENZOFURAN DERIVATIVES AS SIK INHIBITORS AND THE USE THEREOF” (BEONE MEDICINES I GMBH, priority 2023, published 2026).
